Data reported in US20120277265A1, “NOVEL POLYQUINOLINE DERIVATIVES AND THE THERAPEUTIC USE THEREOF” (CENTRE NATIONAL DE LA RECHERCHE SCIENTIFIQUE (C.N.R.S.), priority 2005, published 2012).

Experiments:
[1] = Competition reaction between ligand (Ls), CuCl2 and competing chelator (Lc), UV-visible; affinity constants; conditions: Ls/CuCl2/Lc 1/1/1 at 15 μM; solvent per ligand as in Table 3
Procedure: An organic solvent (CH3OH, dioxane or DMSO) was added in order to achieve good solubility of all the ligands and metal complexes in the concentrations used in these experiments. Monitoring has shown that all the ligands and metal complexes examined yield results corresponding to the Beer-Lambert Law in the experimental conditions used.
Lc competing chelators were selected to provide a range of stability constants for the metal ion M presenting intervals of approximately one or two log units, as well as to make it possible for each competition experiment to quantify one of the Ls, MLs, Lcc or MLc species with a UV-vis spectrum wavelength without contaminating the three other species (FIG. 7). […] As the concentration [MLs]=x % of C is measured on the UV-visible spectra, the concentrations [Ls]=(1−x) % of C, [MLc]=(1−x) % of C and [Lc]=x % of C can be deduced therefrom and:

[2] = Determination of log D7.4 (1-octanol / Tris-HCl buffer); assay type: physicochemical; conditions: 1-octanol / 20 mM Tris-HCl buffer containing 150 mM NaCl (pH = 7.4) (1/1, v/v)
Procedure: The ligand (2.0 mg) is dissolved in 2 ml of 1-octanol then 2 ml of 20 mM Tris-HCl buffer, pH=7.4 containing 150 mM NaCl are added. After mixing in a vortex for 3 min at ambient temperature, followed by centrifugation for 5 min at 9,000 rpm, the concentration of the ligand in each phase is determined by UV-visible spectrophotometry. The 1-octanol fractions are thus redivided until reproducible values of coefficient of division of obtained. This coefficient is expressed as the decimal logarithm of [(the concentration of ligand contained in the 1-octanol phase)/(the concentration of ligand contained in the buffered aqueous phase)]=log D7.4. Measurements were taken three times.

[3] = target: T1, Aβ1-42 (Homo sapiens, UniProt P05067); experiment: Inhibition of the precipitation of Aβ1-42 by the addition of ligand (Micro BCA assay of soluble/aggregated peptide); assay type: biochemical; conditions: Aβ1-42 5 μM, pH 7.4; for CuCl2 % soluble Aβ: 20 μM CuCl2, 1 h 37° C. then 1 h with 200 μM ligand; for FeCl3 % soluble Aβ: 20 μM FeCl3, 1 h 37° C. then 1 h with 200 μM ligand; for ZnCl2 % soluble Aβ: 20 μM ZnCl2, 1 h 37° C. then 1 h with 200 μM ligand; for without metal % soluble Aβ: no metal salt, 1 h 37° C. then 1 h with 200 μM ligand
T1 construct: The β-amyloid peptide Aβ1-42 (Aβ1-42) was synthesised, purified (to a purity greater than 95%); made in house; host or cells: chemical peptide synthesis (no expression host)
T1 sequence (P05067 672-713): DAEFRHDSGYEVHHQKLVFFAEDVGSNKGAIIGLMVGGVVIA
Procedure: After a further hour of incubation, the reaction mixture is centrifuged.
Before use, the water [of Milli-Q Millipore quality] and all buffer solutions were treated on Chelex-100 resin (Biorad) (5 mg/ml) and filtered through 0.2 μm filters (Whatman) to remove potential traces of metal ions or particles.
Working solutions of the peptide were prepared by solubilising 1 mg of lyophilised peptide in 500 μl of water and 500 μl of an aqueous NaOH solution pH=12.0, while stirring in a Thermomixer Comfort (Eppendorf). The peptide preparations are subsequently centrifuged for 10 minutes at 9,000 rpm and the supernatant is used as an “Aβ stock” solution. The concentration of peptide in the “Aβ stock” is determined immediately by colorimetric assay using a Micro BCA Protein Assays kit (Pierce) from standard ranges produced using known amounts of bovine serum albumin (BSA) then the Aβ1-42 peptide solution is aliquoted and frozen rapidly in liquid nitrogen prior to being stored at −20° C. until being used.
Salts are generated by adding one hydrochloric acid equivalent per nitrogen group equivalent of the ligand dissolved in DMSO. After evaporation of the solvent, these salts are dissolved at the desired concentration with DMSO and kept at −20° C. until they are used.
The protocol was established from works by: C. S. Atwood et al., J. Neurochem. […] The final concentrations are given. 500 μl of Aβ1-42 (5 μM is set to aggregate in 20 mM Tris-HCl buffer containing 150 mM NaCl (pH=7.4) for 1 hour at 37° C. while stirring at 1,400 rpm in the absence or presence of metal ions: CuCl2, ZnCl2 or FeCl3 (20 μM). Then 50 pi of ligand to be tested (200 μM) dissolved in DMSO are added and the samples are incubated for 1 further hour at 37° C. while stirring at 1,400 rpm. The samples without ligand also receive 50 μl of DMSO. The samples (final volume=550 μ) are subsequently centrifuged for 20 min at 9,000 rpm, and 500 μl of supernatant are removed. The tube containing the precipitation pellet then receives 450 μl of assay buffer/DMSO mixture (91/9, v/v). […] Quantification is carried out on the basis of standard BSA ranges. The amounts of Aβ1-42 actually contained in the pellet and the supernatant are obtained after a correction due to the presence of a residual portion of supernatant in the pellet-containing fraction.
For the control experiments with derivatives comprising a single quinoline residue, […] of ligand were added because complexes of type L2Cu are conventionally used in these cases.

[4] = Competition reaction between ligand (Ls), ZnCl2 and competing chelator (Lc), UV-visible; affinity constants; assay type: binding; conditions: Ls/ZnCl2/Lc 1/1/1 at 15 μM; solvent per ligand as in Table 3
Procedure: An organic solvent (CH3OH, dioxane or DMSO) was added in order to achieve good solubility of all the ligands and metal complexes in the concentrations used in these experiments.
As the concentration [MLs]=x % of C is measured on the UV-visible spectra, the concentrations [Ls]=(1−x) % of C, [MLc]=(1−x) % of C and [Lc]=x % of C can be deduced therefrom and:
In these conditions, [MLs]=[MLc]; [MLs]+[Lc]=Y, y≧50 and:
When log Ks 6, these equations are not used since the percentages of metal ion which is free in the solution or chelated by the solvent or the buffer are not negligible.

[5] = UV-visible spectrophotometric titration with CuCl2 (metal/ligand stoichiometry); assay type: binding; conditions: 15 μM ligand; Tris-HCl buffer pH 7.4/organic solvent, per ligand as in Table 3 column Solvent
Procedure: (§1) An organic solvent (CH3OH, dioxane or DMSO) was added in order to achieve good solubility of the ligands and metal complexes in the concentrations used in these experiments. Exact proportions of the organic solvent/buffer mixture are specified for each UV-visible characterisation of the different ligands or metal complexes.
(§2) Aliquot portions of concentrated CuCl2 or ZnCl2 solutions (M) are added to a 15 μM ligand solution so as to induce only negligible variations in volume. After each addition, changes in absorption spectra are observed immediately and are consistent between two additions, which corresponds to a rapid complexing process. The exact absorption values relating to each ligand and the copper(II) or zinc(II) complexes thereof are detailed hereinafter in the Experimental part (in the Synthesis part for ligands and hereinafter for the metal complexes).
(§3) The stoichiometry of the different ligands (L) for Cu(II) or ZN(II) have therefore been determined spectrophotometrically by metal ion titration. In this example, for an M/L ratio increasing from 0 to 1, π→π* with transition, centred at 251 nm for the free ligand, is shifted to a lower energy with a concomitant appearance of an absorption band in the visible region of the spectrum (λmax to 383 nm), which is probably the result of an MLCT transition. For greater M/L ratios, no additional change in the UV-visible absorption spectra is observed.

[6] = UV-visible spectrophotometric titration with ZnCl2 (metal/ligand stoichiometry); assay type: binding; conditions: 15 μM ligand; Tris-HCl buffer pH 7.4/organic solvent, per ligand as in Table 3 column Solvent
Procedure: as §1, §2, §3

[7] = Hydrogen peroxide produced by Aβ1-42 in the presence of CuCl2, ascorbate, air and ligand (Amplex Red H2O2/HRP); assay type: biochemical; conditions: ligand 1 eq/Cu(II) (0.4 μM); CuCl2 0.4 μM, ascorbate 10 μM, air
Procedure: (§4) FIG. 11: Variation in H2O2 production by copper complexes of Aβ1-42 peptide as a function of the Cu(II)/Aβ stoichiometry. Experiments are carried out for 5 minutes in a sodium phosphate buffer (pH=7.4) in the presence 0.4 μM CuCl2, 10 μM ascorbate and air with or without 0.4 μM of 3 or 7. The H2O2 released is quantified by means of an Amplex-Red H2O2/HRP Assay kit.
(§5) The final concentrations are given. The reactions were carried out in the dark in mM sodium phosphate buffer (pH=7.4). Aβ1-42 (0.2 μM) and CuCl2 (0.4 μM) were pre-incubated for 1 hour at 37° C. while stirring at 1,400 rpm in 375 μl of buffer. Then 2 μl of a solution of ligand to be investigated (0.2; 0.4 or 0.8 μM) in DMSO were added. After incubation for a further hour, 2 μl of an aqueous sodium ascorbate solution (10 μM) were added and incubation was continued for 5 min while stirring. The amount of H2O2 produced is then quantified using an Amplex Red H2O2/HRP Assay Kit (Molecular Probes) while adding a volume of assay reagent to the samples, then incubating them for 1 hour at 37° C. while stirring at 500 rpm. […] Quantification is carried out on the basis of standard curves obtained with known amounts of H2O2.
(§6) The figures in the tables correspond to the amount of H2O2 (expressed in nanomoles) added using an Amplex Red H2O2/HRP Assay kit.

[8] = target: T2, copper complexes of Aβ1-42 peptide (Homo sapiens, UniProt P05067); experiment: as above; assay type: biochemical; conditions: ligand 1 eq/Cu(II) (0.4 μM); CuCl2 0.4 μM, ascorbate 10 μM, air
T2 construct: The β-amyloid peptide Aβ1-42 (Aβ1-42) was synthesised, purified (to a purity greater than 95%); made in house; host or cells: chemical peptide synthesis (no expression host)
T2 sequence (P05067 672-713 limits assumed, one chain of several): as the sequence (P05067 672-713) above
Procedure: as §4, §5, §6

Oc1cccc2ccc(CCCCc3ccc4cccc(O)c4n3)nc12 [Compound 10, 2,2′-(1,4-Butanediyl)-bis(8-hydroxyquinoline)]
percentage of the CuLs species at equilibrium, competing ligand EDTA [1]: 45% | logD at 3 min [2]: 3.8 ± 0.1 | CuCl2 % soluble Aβ [3]: 42% | FeCl3 % soluble Aβ [3]: 43% | ZnCl2 % soluble Aβ [3]: 43% | without metal % soluble Aβ [3]: 52% | percentage of ZnLs species at equilibrium, competing ligand EDTA [4]: 45% | Complex observed by titration with Cu^II (observed L/Cu(II) stoichiometry) [5]: LCu^II(1/1) | Complex observed by titration with Zn^II (observed L/Zn(II) stoichiometry) [6]: LZn^II(1/1)

c1cnc2c(NCCCNc3cccc4cccnc34)cccc2c1 [Compound 13, N,N′-di-8-quinolinyl-1,3-propanediamine]
percentage of the CuLs species at equilibrium, competing ligand EDDA [1]: 65% | percentage of the CuLs species at equilibrium, competing ligand EDTA [1]: 25% | logD at 3 min [2]: 2.7 ± 0.1 | CuCl2 % soluble Aβ [3]: 55 ± 3% | FeCl3 % soluble Aβ [3]: 66% | ZnCl2 % soluble Aβ [3]: 57% | without metal % soluble Aβ [3]: 71 ± 2% | Complex observed by titration with Cu^II (observed L/Cu(II) stoichiometry) [5]: LCu^II(1/1) | amount of H2O2, without Aβ1-42 [7]: 0.89 nmol | amount of H2O2, 0.2 μM Aβ1-42 Cu/Aβ = 2 [8]: 2.10 nmol | amount of H2O2, 0.5 μM Aβ1-42 Cu/Aβ = 0.75 [8]: 0.70 nmol
